From ChEMBL document CHEMBL1909046, “DrugMatrix in vitro pharmacology data” come the findings set out here.

The target in one data set is T1, Estrogen receptor (Homo sapiens, UniProt P03372). Note: in other assays of this panel Not Active means under 50% inhibition at 10 µM.
T1 sequence (P03372 whole entry): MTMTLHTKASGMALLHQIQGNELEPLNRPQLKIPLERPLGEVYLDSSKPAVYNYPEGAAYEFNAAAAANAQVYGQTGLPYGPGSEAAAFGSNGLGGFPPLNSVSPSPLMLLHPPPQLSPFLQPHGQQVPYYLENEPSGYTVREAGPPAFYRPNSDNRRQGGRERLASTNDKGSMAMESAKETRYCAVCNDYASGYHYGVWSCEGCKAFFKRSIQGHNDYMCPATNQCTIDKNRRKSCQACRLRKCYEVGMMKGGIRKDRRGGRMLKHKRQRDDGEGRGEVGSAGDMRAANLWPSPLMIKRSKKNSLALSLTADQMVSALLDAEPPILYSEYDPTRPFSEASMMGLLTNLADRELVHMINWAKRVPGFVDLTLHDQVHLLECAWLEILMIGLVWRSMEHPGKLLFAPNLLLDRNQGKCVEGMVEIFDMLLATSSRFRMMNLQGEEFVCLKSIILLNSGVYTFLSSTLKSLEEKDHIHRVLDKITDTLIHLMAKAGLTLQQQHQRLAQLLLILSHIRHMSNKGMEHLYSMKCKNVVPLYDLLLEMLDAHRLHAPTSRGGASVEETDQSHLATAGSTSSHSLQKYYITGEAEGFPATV
The following applies: sf9.

The target of data set [1] is Tyrosine-protein kinase Lck (Homo sapiens, UniProt P06239). Briefly: DRUGMATRIX: Protein Tyrosine Kinase, LCK enzyme inhibition (substrate: Poly(Glu:Tyr)). It is filed as cell-based, Insect cells. The following applies: Not Active = under 50% inhibition at 10 µM.
The nature of data set [2]: DRUGMATRIX: Phorbol Ester radioligand binding (ligand: [3H] PDBu). It is filed as cell membranes, Mus musculus, ICR, Brain, Membrane. The following applies: Not Active = under 50% inhibition at 10 µM.
The next data set addresses Melanocortin receptor 5 (Homo sapiens, UniProt P33032). Format: cell membranes, HEK293, Membrane. The following applies: hek293.
In data set [3] the target is T2, C-X-C chemokine receptor type 1 (Homo sapiens, UniProt P25024). Note: in other assays of this panel Not Active means under 50% inhibition at 10 µM.
T2 sequence (P25024 whole entry): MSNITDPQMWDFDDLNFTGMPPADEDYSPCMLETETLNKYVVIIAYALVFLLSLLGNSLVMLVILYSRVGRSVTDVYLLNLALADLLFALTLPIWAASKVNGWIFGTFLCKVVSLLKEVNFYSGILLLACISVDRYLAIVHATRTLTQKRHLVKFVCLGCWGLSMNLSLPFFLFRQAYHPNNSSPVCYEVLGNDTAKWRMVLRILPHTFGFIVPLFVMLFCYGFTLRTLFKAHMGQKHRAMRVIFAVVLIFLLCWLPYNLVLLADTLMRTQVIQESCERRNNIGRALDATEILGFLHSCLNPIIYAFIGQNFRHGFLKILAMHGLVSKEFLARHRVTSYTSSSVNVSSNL

Data set [4] can be described thus: DRUGMATRIX: Serotonin (5-Hydroxytryptamine) 5-HT3 radioligand binding (ligand: [3H] GR-65630). It is filed as cell membranes, Membrane. The following applies: hek293; Not Active = under 50% inhibition at 10 µM.
For data set [5], the target named is T3, Polyunsaturated fatty acid lipoxygenase ALOX15 (Oryctolagus cuniculus, UniProt P12530).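 Note: inhibition of 15-lipoxygenase enzyme activity measured with linoleic acid as the substrate; in other assays of this panel Not Active means under 50% inhibition at 10 µM.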
T3 sequence (P12530 whole entry): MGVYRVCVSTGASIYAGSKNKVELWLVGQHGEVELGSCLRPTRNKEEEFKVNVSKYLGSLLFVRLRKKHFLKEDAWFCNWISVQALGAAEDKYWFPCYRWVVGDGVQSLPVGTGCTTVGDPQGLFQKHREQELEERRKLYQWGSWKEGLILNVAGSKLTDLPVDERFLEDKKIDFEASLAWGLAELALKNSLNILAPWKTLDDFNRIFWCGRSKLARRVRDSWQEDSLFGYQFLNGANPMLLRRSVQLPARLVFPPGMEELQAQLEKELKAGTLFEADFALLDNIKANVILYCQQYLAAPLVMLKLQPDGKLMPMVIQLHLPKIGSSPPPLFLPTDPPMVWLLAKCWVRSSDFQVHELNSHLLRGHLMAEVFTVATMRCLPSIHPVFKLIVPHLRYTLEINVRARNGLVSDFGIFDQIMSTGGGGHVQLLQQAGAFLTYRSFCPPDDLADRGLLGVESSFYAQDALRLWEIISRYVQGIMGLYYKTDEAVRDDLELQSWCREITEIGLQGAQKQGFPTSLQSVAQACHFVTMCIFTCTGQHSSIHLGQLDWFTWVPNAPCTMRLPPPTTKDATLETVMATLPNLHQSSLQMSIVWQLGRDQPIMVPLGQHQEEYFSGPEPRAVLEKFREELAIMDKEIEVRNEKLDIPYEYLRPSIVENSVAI
Briefly: biochemical. To be noted: reticulocytes. It is filed as tissue-based, Reticulocytes.

Data set [6] is described as follows: DRUGMATRIX: Calcium Channel Type L, Phenylalkylamine radioligand binding (ligand: [3H] (-)-Desmethoxyverapamil (D-888)). It is filed as cell membranes, Rattus norvegicus, Wistar, Brain, Membrane. The following applies: Not Active = under 50% inhibition at 10 µM.
Data set [7] deals with 5-hydroxytryptamine receptor 6 (Homo sapiens, UniProt P50406). Format: cell membranes, HeLa, Membrane. The following applies: hela.
A further data set concerns the target Melanocortin receptor 3 (Homo sapiens, UniProt P41968). It is filed as cell membranes, Membrane. To be noted: hek293. Note: in other assays of this panel Not Active means under 50% inhibition at 10 µM.
Data set [8] addresses C-C chemokine receptor type 5 (Homo sapiens, UniProt P51681). Format: cell membranes, Membrane. To be noted: hek293.
For data set [9], the target named is T4, Alpha-2A adrenergic receptor (Homo sapiens, UniProt P08913). Note: in other assays of this panel Not Active means under 50% inhibition at 10 µM.
T4 sequence (P08913 whole entry): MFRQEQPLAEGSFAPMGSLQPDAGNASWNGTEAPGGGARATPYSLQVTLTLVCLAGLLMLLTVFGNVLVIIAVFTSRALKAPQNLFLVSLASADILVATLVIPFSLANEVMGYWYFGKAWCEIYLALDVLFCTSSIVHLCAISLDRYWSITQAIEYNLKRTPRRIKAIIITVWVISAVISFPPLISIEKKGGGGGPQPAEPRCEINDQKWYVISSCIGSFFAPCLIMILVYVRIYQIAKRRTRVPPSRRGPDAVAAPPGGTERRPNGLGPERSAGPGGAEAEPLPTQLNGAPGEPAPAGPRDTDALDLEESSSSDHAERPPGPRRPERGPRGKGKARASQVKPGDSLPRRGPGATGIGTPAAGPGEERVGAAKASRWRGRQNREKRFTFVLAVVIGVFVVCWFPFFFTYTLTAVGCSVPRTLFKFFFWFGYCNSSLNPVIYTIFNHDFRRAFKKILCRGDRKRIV
It is filed as cell membranes, Sf9, Membrane.

Data set [10] concerns the target Protein phosphatase 3 catalytic subunit alpha (Homo sapiens, UniProt Q08209). On the set-up: species or system Escherichia coli.
The target of another data set is Cytochrome P450 2C9 (Homo sapiens, UniProt P11712). To be noted: bti-tn-5b1-4. Note: in other assays of this panel Not Active means under 50% inhibition at 10 µM.
Cytochrome P450 2C9, sequence (P11712 whole entry): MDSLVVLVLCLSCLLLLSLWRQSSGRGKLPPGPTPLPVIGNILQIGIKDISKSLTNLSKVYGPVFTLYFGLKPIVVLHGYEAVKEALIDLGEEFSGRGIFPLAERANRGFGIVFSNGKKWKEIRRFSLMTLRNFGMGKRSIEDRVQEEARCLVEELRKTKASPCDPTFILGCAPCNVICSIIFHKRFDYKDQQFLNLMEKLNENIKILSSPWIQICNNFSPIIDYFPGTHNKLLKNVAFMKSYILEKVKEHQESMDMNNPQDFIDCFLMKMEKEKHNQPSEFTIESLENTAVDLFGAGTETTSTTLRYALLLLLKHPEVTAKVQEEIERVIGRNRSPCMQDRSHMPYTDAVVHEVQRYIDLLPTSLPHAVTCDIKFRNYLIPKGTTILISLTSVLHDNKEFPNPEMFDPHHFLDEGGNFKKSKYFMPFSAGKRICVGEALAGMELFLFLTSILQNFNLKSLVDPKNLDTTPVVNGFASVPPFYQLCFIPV

5-hydroxytryptamine receptor 6, sequence (P50406 whole entry): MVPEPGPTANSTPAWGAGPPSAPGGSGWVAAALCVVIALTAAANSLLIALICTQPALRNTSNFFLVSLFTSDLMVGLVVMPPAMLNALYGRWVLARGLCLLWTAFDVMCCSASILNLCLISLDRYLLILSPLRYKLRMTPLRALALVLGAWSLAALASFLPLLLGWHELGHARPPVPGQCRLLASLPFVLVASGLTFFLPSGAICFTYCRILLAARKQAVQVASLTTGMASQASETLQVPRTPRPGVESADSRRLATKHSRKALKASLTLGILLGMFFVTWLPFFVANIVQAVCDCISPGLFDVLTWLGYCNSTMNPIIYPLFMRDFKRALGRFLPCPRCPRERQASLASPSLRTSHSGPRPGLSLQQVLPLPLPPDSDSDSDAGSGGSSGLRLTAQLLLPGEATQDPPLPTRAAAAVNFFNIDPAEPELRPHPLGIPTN
Melanocortin receptor 3, sequence (P41968 whole entry): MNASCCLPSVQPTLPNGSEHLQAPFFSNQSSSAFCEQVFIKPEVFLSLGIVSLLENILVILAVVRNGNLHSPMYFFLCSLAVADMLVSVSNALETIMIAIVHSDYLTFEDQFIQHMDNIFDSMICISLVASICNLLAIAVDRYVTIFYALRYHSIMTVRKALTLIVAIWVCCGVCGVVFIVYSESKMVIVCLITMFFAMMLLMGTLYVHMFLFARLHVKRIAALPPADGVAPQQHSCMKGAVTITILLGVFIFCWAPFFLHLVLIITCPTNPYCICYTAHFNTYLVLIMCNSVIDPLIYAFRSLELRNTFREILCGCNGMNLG
Tyrosine-protein kinase Lck, sequence (P06239 whole entry): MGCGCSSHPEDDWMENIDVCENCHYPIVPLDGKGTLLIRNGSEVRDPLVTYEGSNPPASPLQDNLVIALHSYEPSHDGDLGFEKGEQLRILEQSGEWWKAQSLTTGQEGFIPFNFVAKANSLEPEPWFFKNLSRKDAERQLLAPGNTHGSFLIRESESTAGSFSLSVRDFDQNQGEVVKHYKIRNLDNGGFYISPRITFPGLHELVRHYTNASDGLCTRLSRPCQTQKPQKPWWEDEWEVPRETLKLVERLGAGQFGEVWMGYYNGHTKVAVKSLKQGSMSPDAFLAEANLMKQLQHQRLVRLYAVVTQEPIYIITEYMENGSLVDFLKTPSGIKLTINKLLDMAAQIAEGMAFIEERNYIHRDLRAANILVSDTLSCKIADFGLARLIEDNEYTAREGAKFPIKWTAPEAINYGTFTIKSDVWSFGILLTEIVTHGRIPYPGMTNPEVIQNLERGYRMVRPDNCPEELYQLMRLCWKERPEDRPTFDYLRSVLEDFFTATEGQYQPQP
Melanocortin receptor 5, sequence (P33032 whole entry): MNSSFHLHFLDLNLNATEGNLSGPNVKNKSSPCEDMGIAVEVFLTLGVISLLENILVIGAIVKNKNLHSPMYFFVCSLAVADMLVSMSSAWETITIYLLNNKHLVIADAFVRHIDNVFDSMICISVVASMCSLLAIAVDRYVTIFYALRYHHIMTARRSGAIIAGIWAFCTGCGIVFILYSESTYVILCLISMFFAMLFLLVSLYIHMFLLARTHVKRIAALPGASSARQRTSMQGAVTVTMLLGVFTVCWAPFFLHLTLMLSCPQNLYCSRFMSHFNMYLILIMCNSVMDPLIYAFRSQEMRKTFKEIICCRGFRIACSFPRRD
C-C chemokine receptor type 5, sequence (P51681 whole entry): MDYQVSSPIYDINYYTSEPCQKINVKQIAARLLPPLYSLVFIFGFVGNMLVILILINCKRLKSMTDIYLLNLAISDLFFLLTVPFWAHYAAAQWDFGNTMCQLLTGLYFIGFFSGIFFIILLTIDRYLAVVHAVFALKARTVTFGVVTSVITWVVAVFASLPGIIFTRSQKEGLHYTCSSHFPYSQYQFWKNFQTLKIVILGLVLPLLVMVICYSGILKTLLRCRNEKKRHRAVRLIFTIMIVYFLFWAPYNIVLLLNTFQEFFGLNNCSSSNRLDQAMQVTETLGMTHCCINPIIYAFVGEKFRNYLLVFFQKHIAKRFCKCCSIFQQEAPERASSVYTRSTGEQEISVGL

With `CCCC[C@@H](CC)COC(=O)c1ccccc1C(=O)OC[C@@H](CC)CCCC` [BIS(2-ETHYLHEXYL)PHTHALATE], the IC50 entry (against Estrogen receptor; in data set [1] (insect cells); in data set [2]; on Melanocortin receptor 5; in [3]; in data set [4]) was “Not Active” in each case. For the same compound, the IC50 result (in data set [5]; in data set [6]; in data set [7]; on Melanocortin receptor 3; in data set [8]; in data set [9] (sf9)) was “Not Active” in each case. In addition, the half-maximal inhibitory concentration (IC50) result (in data set [10]; on Cytochrome P450 2C9) was “Not Active” throughout. Besides, the inhibition constant (Ki) result (in data set [2]; in data set [4]; in [6]; on Cytochrome P450 2C9) was “Not Active” throughout.
With `Oc1c(Cl)cc(Cl)cc1Sc1cc(Cl)cc(Cl)c1O` [BITHIONOL], the IC50 (as a rule, the concentration at which inhibition is half-maximal) is “Not Active” on Estrogen receptor; 2.26 µM in data set [1] (read-out: IC50); “Not Active” in [2]; “Not Active” against Melanocortin receptor 5; “Not Active” in data set [3]; “Not Active” in data set [4]. In addition, the concentration for half-maximal inhibition (IC50) result in data set [5] was “Not Active”; in data set [6], “Not Active”; in data set [7] it was “Not Active”; at Melanocortin receptor 3, “Not Active”; in [8], “Not Active”; in data set [9] (read-out: IC50), 3.82 µM. In addition, the IC50 result (in [10]; at Cytochrome P450 2C9) was “Not Active” in each case. Also, the Ki (commonly a dissociation constant, usually derived from enzyme kinetics or from competition with a known ligand) in data set [2] was “Not Active”; in data set [4], “Not Active”; in data set [6], “Not Active”; in [9] (read-out: Ki), 1.43 µM; at Cytochrome P450 2C9 it was “Not Active”.
For `Brc1ccccc1` [BROMOBENZENE], the IC50 entry (on Estrogen receptor; in data set [1] (insect cells); in [2]; against Melanocortin receptor 5; in data set [3]; in data set [4]) was “Not Active” in each case. Moreover, the IC50 result (in data set [5]; in [6]; in [7]; against Melanocortin receptor 3; in data set [8]; in [9] (sf9)) was “Not Active” in each case. Moreover, the IC50 result (in [10]; at Cytochrome P450 2C9) was “Not Active” throughout. Further, the Ki entry (in data set [2]; in [4]; in data set [6]; on Cytochrome P450 2C9) was “Not Active” in each case.
As for `CC[C@@]1(O)C(=O)OCc2c1cc1n(c2=O)Cc2cc3ccccc3nc2-1` [CAMPTOTHECIN], the 50% inhibitory concentration (IC50) result (against Estrogen receptor; in data set [1] (insect cells); in [2]; at Melanocortin receptor 5; in data set [3]; in data set [4]) was “Not Active” throughout. Also, the concentration for half-maximal inhibition (IC50) entry (in data set [5]; in data set [6]; in [7]; against Melanocortin receptor 3; in [8]; in data set [9] (sf9)) was “Not Active” each time. In addition, the IC50 result (in [10]; on Cytochrome P450 2C9) was “Not Active” in each case. For the same compound, the inhibitory constant (Ki) entry (in [2]; in data set [4]; in data set [6]; at Cytochrome P450 2C9) was “Not Active” each time.
As for `COCc1c(C(C)C)nc(C(C)C)c(/C=C/[C@@H](O)C[C@@H](O)CC(=O)O)c1-c1ccc(F)cc1` [CERIVASTATIN], the 50% inhibitory concentration (IC50) entry (against Estrogen receptor; in [1] (insect cells); in [2]; against Melanocortin receptor 5; in data set [3]; in data set [4]) was “Not Active” throughout. In addition, the half-maximal inhibitory concentration (IC50) entry (in data set [5]; in [6]; in data set [7]; at Melanocortin receptor 3; in [8]; in data set [9] (sf9)) was “Not Active” throughout. Moreover, the IC50 entry (in [10]; on Cytochrome P450 2C9) was “Not Active” in each case. Further, the inhibition constant (Ki) result (in data set [2]; in data set [4]; in data set [6]; at Cytochrome P450 2C9) was “Not Active” each time.
For the compound `CC(=O)O[C@]1(C(C)=O)CC[C@H]2[C@@H]3C=C(Cl)C4=CC(=O)CC[C@]4(C)[C@H]3CC[C@@]21C` [CHLORMADINONE ACETATE], the IC50 result (against Estrogen receptor; in [1] (insect cells); in data set [2]; against Melanocortin receptor 5; in [3]; in data set [4]) was “Not Active” each time. Besides, the half-maximal inhibitory concentration (IC50) result (in [5]; in [6]; in data set [7]; against Melanocortin receptor 3; in data set [8]; in [9] (sf9)) was “Not Active” in each case. Moreover, the IC50 entry (in data set [10]; against Cytochrome P450 2C9) was “Not Active” in each case. Also, the Ki result (in data set [2]; in [4]; in data set [6]; at Cytochrome P450 2C9) was “Not Active” each time.
